Some test systems named below: A498; DLD-1; DMS-114; HCT-116; HCT-15; HOP-92; HT-29; KM-20L2; LOX IMVI; M14; M19-MEL; OVCAR-5; SK-MEL-28; SK-MEL-5; SK-OV-3; SNB-78; U-251; UACC-257.
What all share (test): inhibition of tumour cell growth, NCI panel, 48 h

The text below walks through data of ChEMBL document CHEMBL1201862, “PubChem BioAssay data set” (2004).

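Following 48 hours of exposure in 96-well plates, responses at five concentrations were used to interpolate endpoints linearly. Abbreviation: GI50, concentration required for 50% inhibition of growth.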 Calls of active or inactive are those of the source. Cut-off read from the data, not from the text of the source: active = GI50 up to about 1.1 µM and inactive = higher.

On to `COc1ccc(-c2c(C3=NCCCN3)nnn2-c2ccc([N+](=O)[O-])cc2)cc1`, for which the GI50 with A498 is > 100 µM (inactive); in the test on DLD-1, > 100 µM (inactive); in the test on DMS-114 it was > 100 µM (inactive); in the test with HCT-116 it was > 100 µM (inactive); in the test with HCT-15, more than 100 µM; in the test on HOP-92, > 100 µM (inactive). For the same molecule, the GI50 in the test with HT-29, with KM-20L2, in the test on LOX IMVI, in the test on M14, in the test with M19-MEL and in the test on OVCAR-5 was > 100 µM (inactive) in each case. Besides, the GI50 was > 100 µM (inactive) in the test with SK-MEL-28; > 100 µM (inactive) in the test on SK-MEL-5; 34.8 µM (inactive) with SK-OV-3; > 100 µM (inactive) with SNB-78; > 100 µM (inactive) with U-251; > 100 µM (inactive) in the test with UACC-257.
In the case of `O=C(c1ccccc1)c1nnn(Cc2ccccc2Cn2nnc(C(=O)c3ccccc3)c2C(=O)c2ccccc2)c1C(=O)c1ccccc1`, the GI50 in the test on A498 is > 100 µM (inactive); in the test with DLD-1, > 100 µM (inactive); in the test on DMS-114 it was 81.1 µM (inactive); with HCT-116, > 100 µM (inactive); in the test with HCT-15, more than 100 µM; in the test on HOP-92, > 100 µM (inactive). For the same molecule, the GI50 in the test with HT-29, with KM-20L2, in the test with LOX IMVI, in the test on M14, with M19-MEL and in the test on OVCAR-5 was > 100 µM (inactive) throughout. Also, the GI50 with SK-MEL-28, in the test with SK-MEL-5, in the test on SK-OV-3, with SNB-78, in the test on U-251 and in the test with UACC-257 was > 100 µM (inactive) each time.
For the molecule `COc1ccc(-c2c(C3=NCCN3)nnn2-c2ccccc2)cc1`, the GI50 was > 100 µM (inactive) with A498; > 100 µM (inactive) in the test on DLD-1; > 100 µM (inactive) in the test on DMS-114; 99.1 µM (inactive) with HCT-116; more than 100 µM with HCT-15; > 100 µM (inactive) in the test with HOP-92. The GI50 with HT-29 was 91.2 µM (inactive); with KM-20L2, > 100 µM (inactive); in the test with LOX IMVI it was > 100 µM (inactive); in the test with M14, > 100 µM (inactive); in the test on M19-MEL, > 100 µM (inactive); with OVCAR-5, > 100 µM (inactive). Further, the GI50 in the test with SK-MEL-28, in the test on SK-MEL-5, with SK-OV-3, in the test with SNB-78, in the test on U-251 and in the test with UACC-257 was > 100 µM (inactive) each time.
Take `CC1=NN(C(=O)CC(=O)Nc2cccc(Cl)c2)C(=O)C1/N=N/c1ccc(S(N)(=O)=O)cc1` (configuration not stated): the GI50 in the test with A498 is > 100 µM (inactive); in the test on DLD-1, > 100 µM (inactive); with DMS-114, > 100 µM (inactive); in the test with HCT-116, > 100 µM (inactive); in the test on HCT-15, more than 100 µM; in the test on HOP-92, > 100 µM (inactive). Further, the GI50 in the test with HT-29, with KM-20L2, in the test with LOX IMVI, with M14, with M19-MEL and with OVCAR-5 was > 100 µM (inactive) in each case. Moreover, the GI50 in the test with SK-MEL-28, with SK-MEL-5, in the test with SK-OV-3, with SNB-78, in the test on U-251 and with UACC-257 was > 100 µM (inactive) each time.
For `CCCCCCC(=O)CC(=O)C(=O)Nc1ccccc1C`, the GI50 in the test on A498 is > 100 µM (inactive); with DLD-1, > 67.5 µM (inactive); in the test on DMS-114, > 69.7 µM (inactive); in the test on HCT-116, > 100 µM (inactive); with HCT-15, more than 44.4 µM; with HOP-92, > 100 µM (inactive). Further, the GI50 in the test with HT-29 is > 100 µM (inactive); in the test on KM-20L2 it was > 100 µM (inactive); in the test with LOX IMVI, > 43 µM (inactive); in the test with M14, > 100 µM (inactive); in the test with M19-MEL, > 100 µM (inactive); with OVCAR-5, > 100 µM (inactive). For the same molecule, the GI50 with SK-MEL-28 is > 100 µM (inactive); with SK-MEL-5, > 100 µM (inactive); with SK-OV-3, > 100 µM (inactive); with SNB-78, > 100 µM (inactive); with U-251 it was > 89.1 µM (inactive); in the test on UACC-257, > 100 µM (inactive).
For `O=[N+]([O-])c1ccc(-n2nnc(C3=NCCN3)c2-c2ccc(Cl)cc2)cc1`, the GI50 in the test on A498 was > 100 µM (inactive); in the test with DLD-1, > 100 µM (inactive); with DMS-114, 77.1 µM (inactive); with HCT-116 it was 55.8 µM (inactive); with HCT-15, more than 100 µM; with HOP-92, > 100 µM (inactive). The GI50 is 66.8 µM (inactive) with HT-29; > 100 µM (inactive) with KM-20L2; > 100 µM (inactive) in the test on LOX IMVI; > 100 µM (inactive) with M14; > 100 µM (inactive) in the test on M19-MEL; > 100 µM (inactive) in the test on OVCAR-5. Also, the GI50 in the test with SK-MEL-28, with SK-MEL-5, with SK-OV-3, in the test with SNB-78, with U-251 and with UACC-257 was > 100 µM (inactive) in each case.
As to `Cc1nc(Nc2ccc(Cl)cc2)sc1C(=O)NNC(=O)C(=O)NN`, the GI50 with A498 is 15.7 µM (inactive); in the test on DLD-1 it was 18.5 µM (inactive); in the test with DMS-114, 20.4 µM (inactive); in the test on HCT-116, 19.6 µM (inactive); in the test with HCT-15, 17.1 µM; in the test with HOP-92, 19.9 µM (inactive). In addition, the GI50 in the test with HT-29 is 16.6 µM (inactive); in the test with KM-20L2 it was 16.3 µM (inactive); in the test on LOX IMVI it was 17.6 µM (inactive); in the test on M14, 18.6 µM (inactive); in the test on M19-MEL, 19.2 µM (inactive); in the test with OVCAR-5 it was 17 µM (inactive). In addition, the GI50 was 22.8 µM (inactive) in the test with SK-MEL-28; 18.7 µM (inactive) in the test on SK-MEL-5; 22 µM (inactive) with SK-OV-3; 26.9 µM (inactive) with SNB-78; 19.1 µM (inactive) in the test on U-251; 25.1 µM (inactive) in the test on UACC-257.
For the molecule `C[Si](C)(C)C#C[I+]c1ccccc1`, the GI50 in the test on A498 is > 100 µM (inactive); in the test on DLD-1, 19.4 µM (inactive); in the test on DMS-114, 20.9 µM (inactive); in the test on HCT-116 it was 27.5 µM (inactive); in the test on HCT-15, 22.5 µM; in the test with HOP-92, 40.5 µM (inactive). The GI50 in the test on HT-29 was 32.9 µM (inactive); in the test on KM-20L2 it was 37.5 µM (inactive); with LOX IMVI, 19.1 µM (inactive); in the test on M14, 23.5 µM (inactive); in the test on M19-MEL it was 31.6 µM (inactive); in the test on OVCAR-5, > 100 µM (inactive). The GI50 is 39.4 µM (inactive) in the test on SK-MEL-28; 45.9 µM (inactive) with SK-MEL-5; > 100 µM (inactive) with SK-OV-3; 50.2 µM (inactive) in the test with SNB-78; 38 µM (inactive) in the test with U-251; > 100 µM (inactive) in the test with UACC-257.
`COC(C(=O)NCCCCNC(=O)C(OC)c1ccccc1)c1ccccc1` (configuration not stated): the GI50 is > 100 µM (inactive) in the test on A498; > 100 µM (inactive) in the test with DLD-1; > 100 µM (inactive) with DMS-114; > 100 µM (inactive) with HCT-116; more than 100 µM in the test on HCT-15; > 100 µM (inactive) in the test with HOP-92. Further, the GI50 in the test on HT-29, in the test with KM-20L2, in the test on LOX IMVI, with M14, with M19-MEL and with OVCAR-5 was > 100 µM (inactive) throughout. For the same molecule, the GI50 with SK-MEL-28, with SK-MEL-5, in the test on SK-OV-3, with SNB-78, with U-251 and in the test with UACC-257 was > 100 µM (inactive) in each case.
Turning to `COc1ccc(C(=O)CC(=O)C(=O)Nc2ccc(C)c(C)c2)cc1`, the GI50 in the test on A498 is > 100 µM (inactive); in the test with DLD-1, 61.8 µM (inactive); in the test on DMS-114 it was 22.8 µM (inactive); with HCT-116, 43.8 µM (inactive); with HCT-15, 31.3 µM; in the test on HOP-92, > 51.3 µM (inactive). Further, the GI50 is > 100 µM (inactive) with HT-29; > 77.1 µM (inactive) in the test with KM-20L2; 23.7 µM (inactive) in the test on LOX IMVI; > 100 µM (inactive) in the test on M14; > 100 µM (inactive) in the test on M19-MEL; > 100 µM (inactive) in the test with SK-MEL-28. Moreover, the GI50 with SK-MEL-5 is 97.9 µM (inactive); with SK-OV-3, > 100 µM (inactive); in the test with SNB-78, > 100 µM (inactive); in the test on U-251, 63.4 µM (inactive); in the test with UACC-257, > 100 µM (inactive).
Consider `CSC1=Nc2ccccc2N=C(c2ccccc2)C1`, for which the GI50 is > 100 µM (inactive) with A498; 29.4 µM (inactive) in the test with DLD-1; 21.5 µM (inactive) in the test on DMS-114; 24.6 µM (inactive) in the test on HCT-116; 33.3 µM in the test with HCT-15; 20.2 µM (inactive) in the test on HOP-92. In addition, the GI50 in the test with HT-29 was 46.7 µM (inactive); with KM-20L2 it was 35.4 µM (inactive); in the test with LOX IMVI, 17.2 µM (inactive); in the test with M14, > 100 µM (inactive); with M19-MEL, 54.6 µM (inactive); in the test with OVCAR-5 it was 67.1 µM (inactive). In addition, the GI50 in the test on SK-MEL-28 is > 100 µM (inactive); in the test on SK-MEL-5, 44.5 µM (inactive); with SK-OV-3 it was > 100 µM (inactive); with SNB-78 it was > 100 µM (inactive); in the test on U-251, > 100 µM (inactive); with UACC-257, 33.1 µM (inactive).
